Source: patent US11268069B2, “Reprogramming methods and cell culture platforms” (Fate Therapeutics, Inc., priority 2014, dated 2022)

Test system: hiPSC clone FTi111
Experiment: Thaw of hiPSC clone FTi111 into various culture environments
Assay type: cell-based, human
Details: conventional culture with feeder cells

SMILES: O=C(NCc1ccccc1)c1csc(Nc2ccncn2)n1 [Thiazovivin]
- recovery of hiPSC colonies post thaw: only recovered in the presence of Thiazovivin
